Results on nine compounds are retold here after US4599424A, “5-substituted thiadiazole ureas and their use as herbicides” (priority 1979, dated 1986).

The subject of test [1] is a variety of crops and weed species. As to the kind of experiment: Pre- and post-emergence herbicide tests, overall assessment of TABLES III-VI. Type of test: in vivo. To be noted: from data of TABLES III-VI. The method, then: (§1) All crop and weed species were planted individually in 3" plastic pots containing potting soil. Four seeds each of corn, cotton, and snapbeans were seeded to a depth equal to the diameter of the seed. All other species were surface seeded and sprinkled with screened soil in an amount sufficient to cover the seed. Immediately after planting, all pots were watered by sub-irrigation in greenhouse trays. Pots for the pre-emergence phase were seeded one day before treatment.
(§2) Planting dates for the post-emergence phase were varied so that all seedlings would reach the desired stage of development simultaneously. The proper stage of seedling development for treatment in the post-emergence phase is as follows:
(§3) Compounds were tested at rates of application equivalent to 8 lbs. of actual compound per acre in a spray volume of 38 gallons per acre. Spray hood constants required to deliver the above volume are as follows:
(§4) Two weeks after treatment, pre- and post-emergence injury or control was visually rated, and the results were as shown in the following tables. Pre-emergence data are provided in TABLE III and post-emergence data are provided in TABLE IV, for compounds having the formula illustrated in TABLE I. Correspondingly, pre-emergence and post-emergence data, respectively, are set forth in TABLES V AND VI, for compounds having the formula illustrated in TABLE II.
Typical of such compounds are: 1, 2, 5, 26, 36, and 37.

A further test relates to Bean (BN). As to the kind of experiment: Post-emergence herbicide test, bean. To be noted: Phaseolus vulgaris, post-emergence, 336 h, 0.5 lb/acre, two weeks. Type of test: in vivo, Phaseolus vulgaris var. Black Valentine. The method, then: Bean (BN)--Phaseolus vulgaris var. Black Valentine
as §1, §2
Beans: primary leaves expanded, growing point at primary leaf nodes.
Spray hood constants required to deliver the above volume are as follows:
(§5) Formulations for spray applications were prepared in 50 ml volumes with the following three components:
(§6) Formulations for the 4 lbs/acre rate were prepared by adjusting the amount of active ingredient accordingly.
(§7) Spray applications were made in a hood containing a removable belt and fixed spray nozzle. For passage through the spray hood, one pot of each specie (pre-emergence phase) was placed on the rear half of the flat. Treatments were removed to the greenhouse after spraying. Watering during the observation period was done only by sub-irrigation.
as §4

The next test deals with Corn (CN). Nature of the test: Post-emergence herbicide test, corn. The class given is in vivo, Zea mays. Particulars: Zea mays, post-emergence, 336 h, 4 lb/acre, two weeks. The method, then: as §1, §2, §3, §5, §6, §7, §4

For orientation: pest or weed control means how far the test organism was held down. A high value points to a strong effect.

As for `CN(C)C(=O)Nc1nnc(C(F)(F)F)s1` [Example 2, 1,1-Dimethyl-3-[5-Trifluoromethyl-2-(1,3,4-Thiadiazolyl)]Urea], the “herbicidal effectiveness and selectivity (in words)” value in test [1] is given as “extremely effective”.

Take `CCNC(=O)Nc1nnc(C(F)(F)F)s1` [Example 9]: in test [1], the “herbicidal effectiveness and selectivity (in words)” value is “more selective”. Regarding `CCSc1nnc(N(C)C(=O)NC)s1` [Example 89], the pest or weed control at 560.425 g/ha in the test on Bean (BN) is 100%.

On to `O=C(Nc1ccc(Cl)cc1)Nc1nnc(C(F)(F)F)s1` [Example 15], for which, in test [1], the “herbicidal effectiveness and selectivity (in words)” value is given as “more selective”.

Turning to `CCc1nnc(NC(=O)N(C)C)s1` [Example 20], the “herbicidal effectiveness and selectivity (in words)” value in test [1] was “more selective”. The same measure, in the same setting: then `CNC(=O)Nc1nnc(SC)s1` [Example 26], with “extremely effective”. On the same count and under the same terms, then `CNC(=O)Nc1nnc(CC(C)C)s1` [Example 21], with “more selective”; and `CNC(=O)Nc1nnc(COC)s1` [Example 25], with “more selective”. On to `CCN(C(=O)NC)c1nnc(C(F)(F)F)s1` [Example 37], for which the pest or weed control at 4483.4 g/ha in the test on Corn (CN) worked out at 30%. In test [1], the “herbicidal effectiveness and selectivity (in words)” value is recorded as “extremely effective”.
